Assay results as given in US20130310347A1, “MULTI-MODALITY MOLECULAR IMAGING HIGH-THROUGHPUT ASSAY FOR IDENTIFYING HEAT SHOCK PROTEIN 90 (HSP90) INHIBITORS” (The Board of Trustees of the Leland Stanford Junior …, priority 2012, published 2013).

How the values were obtained:
Hsp90α/p23 interactions = biological target: T1, Hsp90α/p23 interactions (Homo sapiens, UniProt P07900); test: HTS dose response, 293T cells stably expressing Hsp90α/p23 split RL reporters; type: cell-based; conditions: inhibition of bioluminescence signals by 50% vs carrier control; 8 point dose response 0.156-20 μM; 24 h
T1 construct: expressed in transfected cells; also with FL-eGFP reporter (293Tα-FG) and as xenografts in nude mice
Protocol: (§1) Novel Hsp90 inhibitors using a commercial 30,176 small molecule chemical compound library with unknown targets and molecular mechanisms (FIG. 9B) were also identified. 293T cells stably expressing Hsp90α/p23 or Hsp90β/p23 split RL reporters were treated with each compound at 8.3 μM.
(§2) Baseline complemented RL activities were determined 90 mins after addition of 20 μl of ENDUREN® (10 μM final concentration) (Promega, Madison, Wis.) using the Analyst GT (Molecular Device, Sunnyvale, Calif.), with an acquisition time of 0.2 sec per well. Cells were incubated with compounds for 24 h prior to re-determination of complemented RL activities, and normalized to the mean RL activities of untreated cells in columns 1-2. Another small molecule chemical library with 30,176 compounds (SPECS, Wakefield, R.I.) was also used in screening modulators of Hsp90(α/β)/p23 inhibitors (at 8.3 μM, one drug per well for initial screening). For dose response/confirmation assay the compounds were tested in duplicate in an 8 point (0.156-20 μM) dose response assay for RL activities for both Hps90(α/β)/p23 interactions. The effect of each compound on cell proliferation at 20 μM was determined using Cell Titer-Blue assay in duplicate wells. […]

Hsp90β/p23 interactions = biological target: T2, Hsp90β/p23 interactions (Homo sapiens, UniProt P08238); test: HTS dose response, 293T cells stably expressing Hsp90β/p23 split RL reporters; type: cell-based; conditions: inhibition of bioluminescence signals by 50% vs carrier control; 8 point dose response 0.156-20 μM; 24 h
T2 construct: expressed in transfected cells; also with FL-eGFP reporter (293Tβ-FG) and as xenografts in nude mice
T2 sequence (P08238 whole entry): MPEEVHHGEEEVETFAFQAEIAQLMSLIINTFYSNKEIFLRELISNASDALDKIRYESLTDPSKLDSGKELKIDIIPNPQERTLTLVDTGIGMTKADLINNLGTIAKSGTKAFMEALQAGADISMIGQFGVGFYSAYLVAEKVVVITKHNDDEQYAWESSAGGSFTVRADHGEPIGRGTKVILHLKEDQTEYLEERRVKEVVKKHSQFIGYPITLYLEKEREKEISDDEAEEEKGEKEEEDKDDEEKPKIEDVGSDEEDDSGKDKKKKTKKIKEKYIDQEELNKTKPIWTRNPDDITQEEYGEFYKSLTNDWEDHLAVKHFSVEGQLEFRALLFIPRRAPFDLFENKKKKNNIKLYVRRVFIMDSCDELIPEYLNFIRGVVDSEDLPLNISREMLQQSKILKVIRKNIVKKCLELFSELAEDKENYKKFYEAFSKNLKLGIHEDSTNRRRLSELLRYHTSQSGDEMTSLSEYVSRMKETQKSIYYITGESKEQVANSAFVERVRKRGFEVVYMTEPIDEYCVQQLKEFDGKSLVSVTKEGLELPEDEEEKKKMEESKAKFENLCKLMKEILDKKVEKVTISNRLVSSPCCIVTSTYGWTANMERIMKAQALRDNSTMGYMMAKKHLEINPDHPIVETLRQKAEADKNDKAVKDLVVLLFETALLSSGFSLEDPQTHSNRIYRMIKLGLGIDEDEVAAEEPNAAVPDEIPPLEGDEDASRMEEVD
Protocol: as §1, §2

1975 cells = test: Alamar Blue cell proliferation; type: cell-based; conditions: 1975, 24 h
Protocol: FIG. 6A is a series of graphs illustrating the effect of CP9 on cell proliferation determined by an Alamar Blue assay. The indicated cancer cell lines were treated with different concentrations of CP9 for 24 h prior to incubation with Alamar blue for 4 h. The Hsp90 inhibitors PU-H71 and 17AAG were used as positive controls. Emissions at 570 nm in CP9-treated cells were normalized to that of carrier control-treated cells. Results are expressed as normalized cell proliferation±S.E.M.
CP9 had no effect on proliferation of normal MEFs. Since CP9 led to decrease in phosphorylated Akt (FIGS. 5A and 10A-10C), it was expected to inhibit glucose metabolism through relief of inhibition of glycogen synthase kinase […] (Nair & Olanow (2008) J. Biol. Chem. M707238200; Dandekar et al., (2007) J. Nucl. Med. 48: 602-607).

[1] = system: 1975 lung cancer, 2008 ovarian cancer and HT29 colon cancer cells; test: 3H-FDG cell uptake (glucose metabolism); type: cell-based; conditions: 24 h post treatment
Protocol: FIG. 6B is a graph illustrating the effect of CP9 on glucose metabolism determined in 1975 lung cancer, 2008 ovarian cancer and HT29 colon cancer cells by ^3H-FDG cell uptake studies 24 h post treatment. Normal MEFs were used as a control. Results were expressed as mean counts/μg protein/initial dose±S.E.M. *, p<0.05 vs. carrier control treated cells.
Inhibition of glucose metabolism by CP9 in cell culture was monitored by cell uptake studies with ^3H-fluoro-deoxyglucose (^3H-FDG) as described in Dandekar et al. ((2007) J. Nucl. Med. 48: 602-607) as shown in FIG. 6B. PU-H71 was used as a positive control.
To determine the downstream effects of lead compounds on glucose metabolism, 1.5×10^5 293T, 1975 and 2008 and MEFs cells plated in 24-well plate for 24 h, prior to treatment with different concentrations of CP9 for 24 or 48 h and subsequent incubation with 1 μCi of ^3H-FDG in 500 μl of medium for 1 h at 37° C. Cells treated with 2.5 μM of PU-H71 served as a positive control. The total counts in each sample were normalized to that of the dose added to each well and to the amount of protein, and expressed as mean counts/dose/μg protein±S.E.M. Likewise, the effect of CP9 on cell proliferation was determined using 1 μCi of ^3H-FLT per well after 2 h of incubation at 37° C.

[2] = Body weight of treated mice; type: in vivo; conditions: 43 h; P>0.05
[3] = system: DOX-resistant V79/ADR lung cancer cells; test: Sensitivity to DOX, Alamar Blue assay; type: cell-based; conditions: DOX 0.31-10 μM with inhibitor (CP9 8 μM), 24 h
Protocol: (§3) FIGS. 13A-13C illustrate the inhibition of cell proliferation of DOX-resistant V79/ADR lung cancer cells by CP9 and the Hsp90 inhibitor PU-H71 in cell culture. V79 lung cancer cells and […] cells that are resistant to DOX were treated with DOX (0.31-10 μM) in the presence or absence of CP9 (8 μM) for 24 h before determination of cell number by an Alamar Blue assay.
(§4) Both Hsp90 isoforms (α and β) are expressed in cancer cells, but Hsp90β is constitutively expressed, whereas the expression of Hsp90α is highly inducible during stress and drug treatment. Using the genetically encoded split Renilla reporter system according to the disclosure, it was possible to decipher the individual contributions of each isoform in determining the sensitivity of Hsp90 inhibitors. It was reported that the transcription of MDR1 is regulated by HSF-1, which in turn is regulated by Hsp90α (Trepel et al., (2010) Nat. Rev. Cancer 10: 537-549). To determine the biological significance of CP9 selectivity in inhibiting Hsp90α/p23 interactions, V79 lung cancer cells and V79/ADR cells that overexpress multidrug-resistant protein and are insensitive to growth inhibition by doxorubicin (DOX) were used. V79 and V79/ADR cells were treated with DOX alone or in the presence of CP9. On the other hand, the addition of CP9 sensitized V79/ADR cells to DOX, as shown by the decrease in cell proliferation relative to treatment with DOX alone, as shown in FIG. 13B. […] The results also are consistent with the observation that derivatives of Hsp90 inhibitor peptides sensitize cancer cells with overexpression of MDR to epirubicin (a class of anthracyclines that includes DOX) (Molnar et al., (2007) In Vivo 21: 429-433).

V79 lung cancer cells = test: Sensitivity to DOX, Alamar Blue assay; type: cell-based; conditions: DOX 0.31-10 μM with CP9 8 μM, 24 h
Protocol: as §3, §4

- IC50 (Hsp90α/p23 interactions): 3.2 µM
- IC50 (Hsp90β/p23 interactions): 15.3 µM
SMILES: Cc1cc(NC(=O)CSc2nc(-c3cccs3)cc(C(F)(F)F)n2)no1 [CP9, N-(5-methylisoxazol-3-yl)-2-(4-(thiophen-2-yl)-6-(trifluoromethyl)pyrimidin-2-ylthio)acetamide]
- inhibition of cell proliferation vs PU-H71 and 17-AAG (1975 cells): more effective than PU-H71 and 17-AAG
- 3H-FDG uptake in the cancer cells [1]: decreased
- body weight vs carrier control-treated mice [2]: no significant decreases in weight
- sensitivity of drug-resistant V79/ADR cells to DOX [3]: partially restored the sensitivity
- sensitivity of drug-sensitive V79 cells to DOX (V79 lung cancer cells): did not affect the sensitivity
